Like-named read-outs stand apart in the source and are kept apart here.
Biological target: T1, REV-ERBα LBD (human; residues 281-614 Δ324-422) (Homo sapiens, UniProt P20393, DEL324-422)
T1 construct: 6×Histag-REV-ERBα LBD (human; residues 281-614 Δ324-422); made in house; host or cells: Escherichia coli
Assay: TR-FRET corepressor interaction assay (REV-ERBα LBD, FITC-SMRT peptide)
Type: biochemical
Outline: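 Compound serial dilutions (in DMSO, triplicate) incubated 2 h at 4 °C; Tb donor excited at 340 nm, emission read at 495 nm and FITC acceptor at 520 nm. TR-FRET ratio (520/495 nm) plotted against ligand concentration and fitted to a sigmoidal dose-response curve.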

[1] = Table 2, read-out: REVERBα agonism (EC50 class, FRET assay)
[2] = FITC-SMRT peptide, read-out: REVERBα agonism (EC50 class, FRET assay)

T1 sequence (P20393 with tags, fused parts or gaps DEL324-422): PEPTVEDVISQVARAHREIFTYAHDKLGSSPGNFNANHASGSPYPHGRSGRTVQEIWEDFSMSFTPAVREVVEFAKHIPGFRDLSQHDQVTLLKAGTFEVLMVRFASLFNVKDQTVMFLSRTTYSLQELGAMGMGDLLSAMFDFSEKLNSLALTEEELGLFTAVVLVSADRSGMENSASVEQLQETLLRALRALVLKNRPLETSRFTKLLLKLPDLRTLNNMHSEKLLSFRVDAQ
T1 sequence (Q9Y618 2335-2356 partner limits assumed): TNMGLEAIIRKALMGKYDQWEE

Question: For `CC(C)Cn1cc([C@H](NS(=O)(=O)N(C)C)C(F)(F)F)c2ccc(C(C)C)cc21` [Example 339, dimethyl({[(1S)-2,2,2-trifluoro-1-[1-(2-methylpropyl)-6-(propan-2-yl)-1H-indol-3-yl]ethyl]sulfamoyl})amine], which EC50 [1] is on record?
Answer: Its EC50 is under 500 nM.

Question: How did the EC50 [2] turn out when `CC(C)(C)Cn1cc([C@H](NS(=O)(=O)C2CCC2)C(F)(F)F)c2cc(F)c(-c3cnccc3C(F)(F)F)cc21` [Example 530, (S)—N-(2,2,2-trifluoro-1-(5-fluoro-1-neopentyl-6-(4-(trifluoromethyl)pyridin-3-yl)-1H-indol-3-yl)ethyl)cyclobutanesulfonamide] was run?
Answer: The EC50 was under 500 nM.

Question: Which EC50 [1] does the source give for `CC(C)Cn1cc(C(NS(=O)(=O)N(C)C)C(F)(F)F)c2ccc(-c3ccccc3C(F)(F)F)cc21` (centres unmarked) [Example 223, dimethyl({2,2,2-trifluoro-1-[1-(2-methylpropyl)-6-[2-(trifluoromethyl)phenyl]-1H-indol-3-yl]ethyl}sulfamoyl)amine] here?
Answer: Its EC50 is under 500 nM.

Question: `CC(C)(C)Cn1cc([C@H](NS(=O)(=O)C2CC2)C(F)(F)F)c2cc(F)c(-c3cccc(F)c3C(F)(F)F)cc21` [Example 360, (S)—N-(2,2,2-trifluoro-1-(5-fluoro-6-(3-fluoro-2-(trifluoromethyl)phenyl)-1-neopentyl-1H-indol-3-yl)ethyl)cyclopropanesulfonamide] was tested. Which EC50 [1] did it give?
Answer: Its EC50 is under 500 nM.

Question: Which EC50 [1] does the source give for `CC(C)Cn1cc([C@H](NS(=O)(=O)C2CC2)C(F)(F)F)c2cc(F)c(C(C)C)cc21` [Example 334, (S)—N-(2,2,2-trifluoro-1-(5-fluoro-1-isobutyl-6-isopropyl-1H-indol-3-yl)ethyl)cyclopropanesulfonamide] here?
Answer: Its EC50 is 500 to 3000 nM.

Question: For `CC(C)S(=O)(=O)NCCc1cn(CCC(C)(C)C)c2cc(-c3ccncc3)ccc12` [Compound 270], which EC50 [1] is on record?
Answer: The EC50 was under 500 nM.

Question: Which EC50 [1] does the source give for `CC(C)C(=O)n1cc(CNS(=O)(=O)N(C)C)c2ccc(-c3ccccc3Cl)cc21` [Example 183] here?
Answer: The EC50 was 500 to 3000 nM.

Question: For `CC(C)Cn1cc(CCNS(=O)(=O)N(C)C)c2ccc(NC(C)C)cc21` [Example 111, N-{2-[6-isopropylamino-1-(2-methylpropyl)-1H-indol-3-yl]ethyl}-N,N-dimethylsulfuric diamide], which EC50 [1] is on record?
Answer: Its EC50 is 500 to 3000 nM.

Question: For `CCNc1ccc2c(CCNS(=O)(=O)N(C)C)cn(CC(C)C)c2c1` [Example 112, N′-{2-[6-ethylamino-1-(2-methylpropyl)-1H-indol-3-yl]ethyl}-N,N-dimethylsulfuric diamide], which EC50 [1] is on record?
Answer: Its EC50 is over 3000 nM.

Question: With `CC(C)Cn1cc(C(C)CNS(=O)(=O)C2CC2)c2ccc(-c3ccncc3)cc21` (centres unmarked) [Compound 253] as the compound, how does the EC50 [1] read?
Answer: The EC50 was 500 to 3000 nM.

Question: With `CC(C)(C)Cn1cc([C@H](NS(=O)(=O)C2CCC2)C(F)(F)F)c2cc(F)c(-c3ncccc3C(F)(F)F)cc21` [Example 444, (S)—N-(2,2,2-trifluoro-1-(5-fluoro-1-neopentyl-6-(3-(trifluoromethyl)pyridin-2-yl)-1H-indol-3-yl)ethyl)cyclobutanesulfonamide] as the compound, how does the EC50 [2] read?
Answer: Its EC50 is under 500 nM.

Question: How did the EC50 [1] turn out when `CC(C)(C)Cc1cn(CCNS(=O)(=O)C2CC2)c2ccc(-c3ccccc3Cl)cc12` [Example 213, N-(2-(5-(2-chlorophenyl)-3-neopentyl-1H-indol-1-yl)ethyl)cyclopropanesulfonamide] was run?
Answer: Its EC50 is under 500 nM.

Question: How did the EC50 [2] turn out when `CCS(=O)(=O)NCCn1cc(CC(C)(C)C)c2cc(-c3ccc(C(F)(F)F)cc3C(F)(F)F)ccc21` [Example 502, N-(2-(5-(2,4-bis(trifluoromethyl)phenyl)-3-neopentyl-1H-indol-1-yl)ethyl)ethanesulfonamide] was run?
Answer: Its EC50 is under 500 nM.

Question: How did the EC50 [2] turn out when `CC(NS(=O)(=O)C1CCC1)c1cn(CC(C)(C)C)c2cc(-c3ccccc3C(F)(F)F)ccc12` (centres unmarked) [Example 507, N-(1-(1-neopentyl-6-(2-(trifluoromethyl)phenyl)-1H-indol-3-yl)ethyl)cyclobutanesulfonamide] was run?
Answer: The EC50 was under 500 nM.

Question: With `CC(C)(C)Cn1cc([C@H](NS(=O)(=O)C2CCC2)C(F)F)c2ccc(-c3c(C#N)cccc3C(F)(F)F)cc21` [Example 535, (S)—N-(1-(6-(2-cyano-6-(trifluoromethyl)phenyl)-1-neopentyl-1H-indol-3-yl)-2,2-difluoroethyl)cyclobutanesulfonamide] as the compound, how does the EC50 [2] read?
Answer: The EC50 was under 500 nM.

Question: With `CC(C)(C)Cc1cn(CCNS(=O)(=O)C2CCCC2)c2ccc(-c3ccc(C(F)(F)F)cc3C(F)(F)F)cc12` [Example 503, N-(2-(5-(2,4-bis(trifluoromethyl)phenyl)-3-neopentyl-1H-indol-1-yl)ethyl)cyclopentanesulfonamide] as the compound, how does the EC50 [2] read?
Answer: Its EC50 is under 500 nM.

Question: How did the EC50 [2] turn out when `CC(C)(C)Cn1cc([C@H](NS(=O)(=O)C2CC2)C(F)(F)F)c2ccc(-c3ncccc3C#N)cc21` [Example 468, (S)—N-(1-(6-(3-cyanopyridin-2-yl)-1-neopentyl-1H-indol-3-yl)-2,2,2-trifluoroethyl)cyclopropanesulfonamide] was run?
Answer: Its EC50 is under 500 nM.

Question: For `CN(C)S(=O)(=O)NCCc1cn(C(=O)c2cc(Cl)cc(Cl)c2)c2cc(-c3ccncc3)ccc12` [Example 151, N′-{2-[6-(pyridin-4-yl)-1-(3,5-dichlorobenzoyl)-1H-indol-3-yl]ethyl}-N,N-dimethylsulfuric diamide], which EC50 [1] is on record?
Answer: Its EC50 is over 3000 nM.

Question: `Cc1ccc(-c2ccc3c(c2)c(CC(C)(C)C)cn3CCNS(=O)(=O)C2CC2)c(C(F)(F)F)c1` [Example 402, N-(2-(5-(4-methyl-2-(trifluoromethyl)phenyl)-3-neopentyl-1H-indol-1-yl)ethyl)cyclopropanesulfonamide] was tested. Which EC50 [1] did it give?
Answer: Its EC50 is under 500 nM.

Question: How did the EC50 [2] turn out when `CC(C)(C)Cn1cc([C@H](NS(=O)(=O)C2CCC2)C(F)(F)F)c2ccc(-c3c(F)cccc3C(F)(F)F)cc21` [Example 496, (S)—N-(2,2,2-trifluoro-1-(6-(2-fluoro-6-(trifluoromethyl)phenyl)-1-neopentyl-1H-indol-3-yl)ethyl)cyclobutanesulfonamide] was run?
Answer: The EC50 was under 500 nM.

Question: With `CC(C)S(=O)(=O)n1cc(CCNS(=O)(=O)N(C)C)c2ccc(-c3ccncc3)cc21` [Example 130, N′-{2-[6-(pyridin-4-yl)-1-isopropylsulfonyl-1H-indol-3-yl]ethyl}-N,N-dimethylsulfuric diamide] as the compound, how does the EC50 [1] read?
Answer: Its EC50 is over 3000 nM.

Question: `CC(C)(C)Cn1cc(CCNS(=O)(=O)C2CC2)c2ccc(-c3cccc(C(F)(F)F)c3C#N)cc21` [Example 399, N-(2-(6-(2-cyano-3-(trifluoromethyl)phenyl)-1-neopentyl-1H-indol-3-yl)ethyl)cyclopropanesulfonamide] was tested. Which EC50 [1] did it give?
Answer: The EC50 was over 3000 nM.

Question: `CC(C)Cn1cc(CCN(C(C)C)S(=O)(=O)C(C)C)c2ccc(-c3ccncc3)cc21` [Compound 277] was tested. Which EC50 [1] did it give?
Answer: Its EC50 is under 500 nM.

Question: `CC(F)(F)Cn1cc([C@H](NS(=O)(=O)C2CCC2)C(F)(F)F)c2ccc(-c3ccccc3C(F)(F)F)cc21` [Example 442, (S)—N-(1-(1-(2,2-difluoropropyl)-6-(2-(trifluoromethyl)phenyl)-1H-indol-3-yl)-2,2,2-trifluoroethyl)cyclobutanesulfonamide] was tested. Which EC50 [2] did it give?
Answer: Its EC50 is 500 to 3000 nM.

Question: With `CC(C)Cn1cc(CCNS(=O)(=O)N(C)C)c2ccc(C(C)(C)C)cc21` [Example 106, ({2-[6-tert-butyl-1-(2-methylpropyl)-1H-indol-3-yl]ethyl}sulfamoyl)dimethylamine] as the compound, how does the EC50 [1] read?
Answer: Its EC50 is over 3000 nM.

Question: How did the EC50 [2] turn out when `CC(C)(O)Cn1cc([C@H](NS(=O)(=O)C2CC2)C(F)(F)F)c2cc(F)c(-c3ccccc3C(F)(F)F)cc21` [Example 474, N-[(1S)-2,2,2-trifluoro-1-[5-fluoro-1-(2-hydroxy-2-methyl-propyl)-6-[2-(trifluoromethyl)phenyl]indol-3-yl]ethyl]cyclopropanesulfonamide] was run?
Answer: The EC50 was 500 to 3000 nM.

Question: Which EC50 [1] does the source give for `CC(C)Cn1cc(CCNS(=O)(=O)N(C)C)c2ccc(-c3ccccc3CO)cc21` [Example 76, N-{2-[6-(2-hydroxylmethylphenyl)-1-(2-methylpropyl)-1H-indol-3-yl]ethyl}-N,N-dimethyl-sulfuric diamide] here?
Answer: Its EC50 is 500 to 3000 nM.

Question: `Cc1cccc2c(CCNS(=O)(=O)N(C)C)cn(CC(C)C)c12` [Example 169, dimethyl({2-[7-methyl-1-(2-methylpropyl)-1H-indol-3-yl]ethyl}sulfamoyl)amine] was tested. Which EC50 [1] did it give?
Answer: The EC50 was 500 to 3000 nM.

Question: For `CC(C)c1ccc2c([C@H](NS(=O)(=O)C3CCC3)C(F)(F)F)cn(CC(C)(C)C)c2c1` [Example 415, (S)—N-(2,2,2-trifluoro-1-(6-isopropyl-1-neopentyl-1H-indol-3-yl)ethyl)cyclobutanesulfonamide], which EC50 [1] is on record?
Answer: The EC50 was 500 to 3000 nM.

Question: For `COC(C)(C)Cn1cc([C@H](NS(=O)(=O)C2CCC2)C(F)(F)F)c2cc(F)c(-c3ccccc3C(F)(F)F)cc21` [Example 391, N-[(1S)-2,2,2-trifluoro-1-[5-fluoro-1-(2-methoxy-2-methyl-propyl)-6-[2-(trifluoromethyl)phenyl]indol-3-yl]ethyl]cyclobutanesulfonamide], which EC50 [1] is on record?
Answer: The EC50 was under 500 nM.

Question: Which EC50 [1] does the source give for `CN(C)S(=O)(=O)NCCc1cn(Cc2cccc(Br)c2)c2cc(-c3ccncc3)ccc12` [Example 143, N-{2-[6-(pyridin-4-yl)-1-(3-bromobenzyl)-1H-indol-3-yl]ethyl}-N,N-dimethylsulfuric diamide] here?
Answer: Its EC50 is under 500 nM.

Question: How did the EC50 [2] turn out when `C[C@H]1C[C@@H]1S(=O)(=O)N[C@@H](c1cn(CC(C)(C)C)c2cc(-c3ccccc3C(F)(F)F)ccc12)C(F)(F)F` [Example 514, (1S,2S)-2-methyl-N—((S)-2,2,2-trifluoro-1-(1-neopentyl-6-(2-(trifluoromethyl)phenyl)-1H-indol-3-yl)ethyl)cyclopropane-1-sulfonamide] was run?
Answer: Its EC50 is under 500 nM.

Question: For `N#CC1(Cn2cc([C@H](NS(=O)(=O)C3CCC3)C(F)(F)F)c3ccc(-c4ccccc4C(F)(F)F)nc32)CC1` [Example 414, (S)—N-(1-(1-((1-cyanocyclopropyl)methyl)-6-(2-(trifluoromethyl)phenyl)-1H-pyrrolo[2,3-b]pyridin-3-yl)-2,2,2-trifluoroethyl)cyclobutanesulfonamide], which EC50 [1] is on record?
Answer: The EC50 was under 500 nM.

Question: How did the EC50 [1] turn out when `Cc1cc2c(cc1F)c([C@H](NS(=O)(=O)C1CC1)C(F)(F)F)cn2CC(C)C` [Example 312, (S)—N-(2,2,2-trifluoro-1-(5-fluoro-1-isobutyl-6-methyl-1H-indol-3-yl)ethyl)cyclopropanesulfonamide] was run?
Answer: The EC50 was under 500 nM.

Question: How did the EC50 [1] turn out when `CC(C)(C)Cn1cc(CCNS(=O)(=O)C2CC2)c2cc(F)c(-c3ccccc3C(F)(F)F)cc21` [Compound 287] was run?
Answer: Its EC50 is under 500 nM.
